In ChEMBL document CHEMBL1132414, “New bicyclam-AZT conjugates: design, synthesis, anti-HIV evaluation, and their interaction with CXCR-4 coreceptor” (J Med Chem, 1999):

Columns and labels:
physchem = details: octanol/water
Description: Partition coefficient (logP)

in vitro = details: human, uninfected MT-4 cells
Description: Concentration required to cause 50% death of uninfected MT-4 cells

[1] = system: Human immunodeficiency virus 1; assay: microbe, parasite or virus in culture; details: Human immunodeficiency virus 1, MT4
Description: Concentration required to inhibit syncytia formation by 50% on HIV-1 infected MT-4 cells

[2] = octanol/water
Description: Partition coefficient (logP)

Row | SMILES | logP (physchem) | CC50 (in vitro) [µM] | EC50 [1] [nM] | logP [2]
1 | CC(C)(C)OC(=O)N1CCCN(C(=O)OC(C)(C)C)CCN(C(=O)OC(C)(C)C)CCCN(C(=O)CCCC(=O)N2CCCN(C(=O)OC(C)(C)C)CCN(C(=O)OC(C)(C)C)CCCN(C(=O)OC(C)(C)C)CC2)CC1 | 6.14 | 10 | > 50000 | –
2 | Cc1cn(C2CC(N=[N+]=[N-])C(COC(=O)CCCC(=O)N3CCCN(C(=O)OC(C)(C)C)CCN(C(=O)OC(C)(C)C)CCCN(C(=O)OC(C)(C)C)CC3)O2)c(=O)[nH]c1=O (stereo not given) | 2.68 | 50 | 50 | –
3 | Cc1cn(C2CC(N=[N+]=[N-])C(COC(=O)CCCCN3CCCN(Cc4ccc(CN5CCCNCCNCCCNCC5)cc4)CCNCCCNCC3)O2)c(=O)[nH]c1=O (stereo not given) | 1.65 | 75 | 5 | –
4 | Cc1cn(C2CC(N=[N+]=[N-])C(COC(=O)CCCC(=O)N3CCCNCCNCCCNCC3)O2)c(=O)[nH]c1=O (stereo not given) | 0.14 | 100 | 10 | –
5 | Cc1cn(C2CC(N=[N+]=[N-])C(COC(=O)CCCCN3CCCN(Cc4ccc(CN5CCCN(C(=O)OC(C)(C)C)CCN(C(=O)OC(C)(C)C)CCCN(C(=O)OC(C)(C)C)CC5)cc4)CCN(C(=O)OC(C)(C)C)CCCN(C(=O)OC(C)(C)C)CC3)O2)c(=O)[nH]c1=O (stereo not given) | 5.7 | 5 | 5 | –
6 | Cc1cn(C2CC(N=[N+]=[N-])C(COC(=O)CCCCN3CCCN(C(=O)CCCC(=O)N4CCCNCCNCCCNCC4)CCNCCCNCC3)O2)c(=O)[nH]c1=O (stereo not given) | 1.81 | 75 | 50 | –
7 | O=C(c1ccc(C(=O)N2CCCNCCNCCCNCC2)cc1)N1CCCNCCNCCCNCC1 | -2.11 | 100 | 50000 | –
8 | CC(C)(C)OC(=O)N1CCCN(C(=O)OC(C)(C)C)CCN(C(=O)OC(C)(C)C)CCCN(Cc2ccc(CN3CCCN(C(=O)OC(C)(C)C)CCN(C(=O)OC(C)(C)C)CCCN(C(=O)OC(C)(C)C)CC3)cc2)CC1 | 6.47 | 5 | 500 | –
9 | Cc1cn(C2CC(N=[N+]=[N-])C(COC(=O)CCCCN3CCCN(C(=O)c4ccc(C(=O)N5CCCNCCNCCCNCC5)cc4)CCNCCCNCC3)O2)c(=O)[nH]c1=O (stereo not given) | -1.35 | 75 | 10 | –
10 | CC(C)(C)OC(=O)N1CCCN(C(=O)OC(C)(C)C)CCN(C(=O)c2ccc(C(=O)N3CCCN(C(=O)OC(C)(C)C)CCN(C(=O)OC(C)(C)C)CCCN(C(=O)OC(C)(C)C)CC3)cc2)CCCN(C(=O)OC(C)(C)C)CC1 | 3.46 | 10 | 1000 | –
11 | Cc1cn(C2CC(N=[N+]=[N-])C(COC(=O)CCCCN3CCCNCCNCCCNCC3)O2)c(=O)[nH]c1=O (stereo not given) | -0.21 | 30 | 10 | –
12 | O=C(CCCC(=O)N1CCCNCCNCCCNCC1)N1CCCNCCNCCCNCC1 | 1.05 | 50 | 10000 | –
13 | Cc1cn(C2CC(N=[N+]=[N-])C(COC(=O)CCCCN3CCCN(C(=O)CCCC(=O)N4CCCN(C(=O)OC(C)(C)C)CCN(C(=O)OC(C)(C)C)CCCN(C(=O)OC(C)(C)C)CC4)CCN(C(=O)OC(C)(C)C)CCCN(C(=O)OC(C)(C)C)CC3)O2)c(=O)[nH]c1=O (stereo not given) | 5.85 | 5 | 50 | –
14 | Cc1cn(C2CC(N=[N+]=[N-])C(COC(=O)CCCCN3CCCN(C(=O)c4ccc(C(=O)N5CCCN(C(=O)OC(C)(C)C)CCN(C(=O)OC(C)(C)C)CCCN(C(=O)OC(C)(C)C)CC5)cc4)CCN(C(=O)OC(C)(C)C)CCCN(C(=O)OC(C)(C)C)CC3)O2)c(=O)[nH]c1=O (stereo not given) | 2.69 | 0.5 | 30 | –
15 | c1cc(CN2CCCNCCNCCCNCC2)ccc1CN1CCCNCCNCCCNCC1 [PLERIXAFOR] | – | 50 | 10000 | 0.89
